Like-named read-outs stand apart in the source and are kept apart here.
Key:
CHO cells = assay: Cytotoxicity in CHO cells; type: cell-based, Chinese hamster; details: for IC50: Cricetulus griseus, CHO
Text: (§1) In terms of Table 1, L1210 cells are mouse leukemia cells and are the gold standard in terms of evaluating polyamine cytotoxicity data due to a plethora of prior data in this cell line for other polyamine structures. Clearly 7a was similar in all respects to 4a (Table 1). […] The lower the Ki value, the higher the affinity of the drug for the polyamine transporter (PAT) on the cell surface. Chinese hamster ovary (CHO) cells and a mutant line without an active PAT (CHO-MG) also evaluated the PAT selectivity of these drugs.
(§2) CHO and CHO-MG studies. Chinese hamster ovary (CHO) cells were chosen along with a mutant cell line (CHO-MG) in order to comment on how the synthetic conjugates gain access to cells. The CHO-MG cell line is polyamine-transport deficient and was isolated after selection for growth resistance to methylglyoxalbis(guanylhydrazone), MGBG, (CH3C[═N—NHC(═NH)NH2]CH[═N—NHC(═NH)NH2]) using a single-step selection after mutagenesis with ethylmethanesulfonate (Mandel et al., J. Cell. Physiol., 1978, 97, 335-344; Byers et al., Biochem. J. 1989, 263, 745-752).
In contrast, the parent CHO cell line represents a cell type with high PAT activity. Comparison of conjugate cytotoxicity in these two CHO lines provided an important screen to detect selective conjugate delivery via the PAT. For example, a conjugate with high utilization of the polyamine transporter would be very toxic to CHO cells, but less so to CHO-MG cells. In short, highly-selective PAT ligands should give high (CHO-MG/CHO) IC50 ratios.
(§3) Biological studies. Murine leukemia cells (L1210), CHO and CHO-MG cells were grown in RPMI medium supplemented with 10% fetal calf serum, glutamine (2 mM), penicillin (100 U/mL), streptomycin (50 μg/mL). L-Proline (2 μg/mL) was added to the culture medium for CHO-MG cells. Cells were grown at 37° C. under a humidified 5% CO2 atmosphere. […] Trypan blue staining was used to determine cell viability before the initiation of a cytotoxicity experiment. Cells in early to mid log-phase were used. IC50 determinations. Cell growth was assayed in sterile 96-well microtiter plates (Becton-Dickinson, Oxnard, Calif., USA). L1210 cells were seeded at 5e^4 cells/mL of medium (100 μL/well). CHO and CHO-MG cells were plated at 2e^3 cells/mL. Drug solutions (10 μL per well) of appropriate concentration were added at the time of seeding for L1210 cells and after an overnight incubation for the CHO cell lines. After exposure to the drug for 48 hr, cell growth was determined by measuring formazan formation from 3-(4,5-dimethylthiazol-2-yl)2,5-diphenyltetrazolium using a Titertek Multiskan MCC/340 microplate reader for absorbance (540 nm) measurements (Mosmann, T., J. Immunol. Methods 1983, 65, 55-63).

L1210 cells = assay: Cytotoxicity (cell growth, MTT) in L1210 cells; type: cell-based, mouse; details: Mus musculus, read-out: L1210 IC50
Text: as §1
Biological Evaluation. Once synthesized, the conjugates were screened for cytotoxicity in L1210, CHO and CHO-MG cells. L1210 (mouse leukemia) cells were selected to enable comparisons with the published IC50 and Ki values for a variety of polyamine substrates. Chinese Hamster Ovary (CHO) cells were chosen along with a mutant PAT deficient cell line (CHO-MG) in order to comment on selective transport via the PAT (Wang et al, J. Med. Chem. 2003, 46, 2663-2671; Wang et al, J. Med. Chem. 2003, 46, 2672-2682; Wang et al., J. Med. Chem. 2003, 46, 5129-5138; Delcros et al., J. Med. Chem., 2002, 45, 5098-5111).
L1210 IC50 and Ki studies. […] The Ki values in Table 3 were determined for [^14C]spermidine uptake and reflect the affinity of the polyamine derivative for the polyamine transporter on the cell surface. With both parameters, one can determine whether high affinity for the transporter (e.g., low Ki value) translated into high cytotoxicity (e.g., low IC50 value), etc.
Biological studies. Murine leukemia cells (L1210), CHO and CHO-MG cells were grown in RPMI medium supplemented with 10% fetal calf serum, glutamine (2 mM), penicillin (100 U/mL), streptomycin (50 μg/mL). L-Proline (2 μg/mL) was added to the culture medium for CHO-MG cells. Cells were grown at 37° C. under a humidified 5% CO2 atmosphere. Aminoguanidine (AG, 2 mM) was added to the culture medium to prevent oxidation of the drugs by the enzyme (bovine serum amine oxidase) present in calf serum. Trypan blue staining was used to determine cell viability before the initiation of a cytotoxicity experiment. Cells in early to mid log-phase were used. IC50 determinations. Cell growth was assayed in sterile 96-well microtiter plates (Becton-Dickinson, Oxnard, Calif., USA). L1210 cells were seeded at 5e^4 cells/mL of medium (100 μL/well). CHO and CHO-MG cells were plated at 2e^3 cells/mL. Drug solutions (10 μL per well) of appropriate concentration were added at the time of seeding for L1210 cells and after an overnight incubation for the CHO cell lines. After exposure to the drug for 48 hr, cell growth was determined by measuring formazan formation from 3-(4,5-dimethylthiazol-2-yl)2,5-diphenyltetrazolium using a Titertek Multiskan MCC/340 microplate reader for absorbance (540 nm) measurements (Mosmann, T., J. Immunol. Methods 1983, 65, 55-63).

CHO-MG cells = assay: Cytotoxicity in PAT-deficient CHO-MG cells; type: cell-based, Chinese hamster; details: Cricetulus griseus, CHO-MG
Text: as §1, §2
For the purposes of this study, the CHO-MG cell line represents cells with no PAT activity and provided a model for alternative modes of entry or action, which are independent of PAT. These alternative modes of entry include passive diffusion or utilization of another transporter. The alternative modes of action may also include interactions on the outer surface of the plasma membrane or other membrane receptor interactions.
as §3

Row | Compound | IC50 (CHO cells; absence of AG, 48 h, read-out: CHO IC50 w/o AG) [nM] | IC50 (CHO cells; in the presence of AG, 48 h at 37° C., read-out: CHO IC50) [nM] | CHOMG/CHO IC50 ratio in the absence of AG (CHO cells; absence of AG) | IC50 Ratio (CHO-MG/CHO) w/o AG (CHO cells; absence of AG) | IC50 Ratio (CHO-MG/CHO), a measure of PAT selectivity (CHO cells; in the presence of AG) | CHOMG/CHO IC50 ratio (CHO cells; with AG) | IC50 Ratio (CHO-MG/CHO) with AG (CHO cells; with AG) | IC50 (L1210 cells; L1210, in the presence of AG, 48 h at 37° C.) [nM] | IC50 (L1210 cells; L1210 experiments, no added SPD) [nM] | IC50 (CHO-MG cells; absence of AG, 48 h, read-out: CHO-MG IC50 w/o AG) [nM] | IC50 (CHO-MG cells; in the presence of AG, 48 h at 37° C., read-out: CHO-MG IC50) [nM] | IC50 (CHO cells; 48 h incubation, new data, read-out: CHO IC50) [nM] | IC50 Ratio (CHO-MG/CHO), a measure of PAT selectivity (CHO cells; new data) | IC50 (L1210 cells; L1210, 48 h incubation, new data) [nM] | IC50 (CHO-MG cells; 48 h incubation, new data, read-out: CHO-MG IC50) [nM]
1 | NCCCCNCCCCNCc1c2ccccc2cc2ccccc12 [Compound 6b] | 1740 | 450 | 4 | 4 | 148 | 148 | 148 | 300 | 300 | 7050 | 66700 |  |  |  | 
2 | CCN(CCCNCCCN)Cc1c2ccccc2cc2ccccc12 [Compound 7a, N-(3-Amino-propyl)-N′-anthracen-9-ylmethyl-N′-ethyl-propane-1,3-diamine] |  |  |  |  |  |  |  |  |  |  |  | 5300 | 0.8 | 2200 | 4000
